From US20250073340A1, “SPIROCYCLIC MDM2 MODULATOR AND USES THEREOF” (Newave Pharmaceutical Inc., priority 2021, published 2025)

Experiments:
[1] = tested on: BCL-2-dependent acute lymphoblastic leukemia (ALL) cell line RS4;11 overexpressing Bcl-2 G101V; test: cells; assay type: cell-based; details: Homo sapiens, RS4-11; about 72 hours, ATPlite luminescence; read-out: RS4;11-G101V IC50
Procedure: Biological Example 2: In vitro Anti-proliferation Assay in BCL-2-dependent acute lymphoblastic leukemia (ALL) cell line RS4; 11 overexpressing Bcl-2 G101V
Cell antiproliferation was assayed by PerkinElmer ATPlite™ Luminescence Assay System. Briefly, the various test cancer cell lines were plated at a density of about 1×10^4 cells per well in Costar 96-well plates, and were incubated with different concentrations of compounds for about 72 hours in medium supplemented with 5% FBS or 10% normal human serum (NHS). One lyophilized substrate solution vial was then reconstituted by adding 5 mL of substrate buffer solution, and was agitated gently until the solution was homogeneous. About 50 μL of mammalian cell lysis solution was added to 100 μL of cell suspension per well of a microplate, and the plate was shaken for about five minutes in an orbital shaker at −700 rpm. This procedure was used to lyse the cells and to stabilize the ATP. Next, 50 μL substrate solution was added to the wells and microplate was shaken for five minutes in an orbital shaker at −700 rpm. Finally, the luminescence was measured by a PerkinElmer TopCount® Microplate Scintillation Counter. Such assays, carried out with a range of doses of test compounds, allowed the determination of the cellular anti-antiproliferative IC50 of the compounds of the present invention.

MDM2 = MDM2 (Homo sapiens (Human), UniProt Q00987); test: In vitro MDM2 HTRF assay (inhibition of p53-MDM2 interaction); assay type: binding; details: GST-MDM2 / biotinylated p53 peptide
Sequence of MDM2 (Q00987 whole entry): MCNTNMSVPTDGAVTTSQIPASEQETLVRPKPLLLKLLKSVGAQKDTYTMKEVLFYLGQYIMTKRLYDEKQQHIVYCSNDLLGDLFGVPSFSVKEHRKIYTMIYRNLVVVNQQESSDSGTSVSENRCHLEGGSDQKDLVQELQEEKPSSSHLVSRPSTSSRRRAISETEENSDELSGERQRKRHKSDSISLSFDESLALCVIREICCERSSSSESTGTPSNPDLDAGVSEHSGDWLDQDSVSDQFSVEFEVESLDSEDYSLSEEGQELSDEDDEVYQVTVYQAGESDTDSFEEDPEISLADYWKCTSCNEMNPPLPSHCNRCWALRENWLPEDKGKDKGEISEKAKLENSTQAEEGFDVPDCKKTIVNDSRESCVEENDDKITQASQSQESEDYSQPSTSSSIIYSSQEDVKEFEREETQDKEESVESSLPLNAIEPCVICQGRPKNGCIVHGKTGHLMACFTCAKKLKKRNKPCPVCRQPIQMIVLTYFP

| Compound | IC50 [1] | IC50 (MDM2) |
| --- | --- | --- |
| COc1cc(C(N)=O)ccc1NC(=O)[C@@H]1N[C@@H](CC(C)(C)C)[C@@]2(CNc3cc(Cl)ncc32)[C@H]1c1cccc(Cl)c1F [Example 9, (2S,3S,4S,5R)—N-(4-carbamoyl-2-methoxyphenyl)-6′-chloro-4-(3-chloro-2-fluorophenyl)-2-(2,2-dimethylpropyl)-1′,2′-dihydrospiro[pyrrolidine-3,3′-pyrrolo[3,2-c]pyridine]-5-carboxamide] | 11 nM | 0.58 nM |
| COc1cc(C(N)=O)ccc1NC(=O)[C@@H]1N[C@@H](CC(C)(C)C)[C@@]2(CNc3cc(C(F)(F)F)ncc32)[C@H]1c1cccc(Cl)c1F [Example 11, (2S,3S,4S,5R)—N-(4-carbamoyl-2-methoxyphenyl)-4-(3-chloro-2-fluorophenyl)-2-(2,2-dimethylpropyl)-6′-(trifluoromethyl)-1′,2′-dihydrospiro[pyrrolidine-3,3′-pyrrolo[3,2-c]pyridine]-5-carboxamide] | 44.7 nM | 0.18 nM |
| CC(C)(C)C[C@@H]1N[C@@H](C(=O)N2CCOc3cc(C(N)=O)ccc32)[C@H](c2cccc(Cl)c2F)[C@]12CNc1cc(Cl)ccc12 [Example 14, 4-((2′S,3S,4′S,5′R)-6-chloro-4′-(3-chloro-2-fluorophenyl)-2′-neopentylspiro[indoline-3,3′-pyrrolidine]-5′-carbonyl)-3,4-dihydro-2H-benzo[b][1,4]oxazine-7-carboxamide] | > 1000 nM | 114 nM |
| CC(C)(C)C[C@H]1N[C@H](C(=O)N2CCOc3cc(C(N)=O)ccc32)[C@@H](c2cccc(Cl)c2F)[C@@]12CNc1cc(Cl)ccc12 [Example 15, 4-((2′R,3R,4′R,5′S)-6-chloro-4′-(3-chloro-2-fluorophenyl)-2′-neopentylspiro[indoline-3,3′-pyrrolidine]-5′-carbonyl)-3,4-dihydro-2H-benzo[b][1,4]oxazine-7-carboxamide] | > 1000 nM | 638 nM |
| COc1cc(C(=O)NCCCC#Cc2cccc3c2CN(C2CCC(=O)NC2=O)C3=O)ccc1NC(=O)[C@@H]1N[C@@H](CC(C)(C)C)[C@@]2(CNc3cc(Cl)ccc32)[C@H]1c1cccc(Cl)c1F (stereo partly drawn) [Example 16, (2′S,3S,4′S,5′R)-6-chloro-4′-(3-chloro-2-fluorophenyl)-N-(4-((5-(2-(2,6-dioxopiperidin-3-yl)-1-oxoisoindolin-4-yl)pent-4-yn-1-yl)carbamoyl)-2-methoxyphenyl)-2′-neopentylspiro[indoline-3,3′-pyrrolidine]-5′-carboxamide] | 10.1 nM | 1.54 nM |
| COc1cc(C(=O)NCCCC#Cc2cccc3c2CN([C@@H]2CCC(=O)NC2=O)C3=O)ccc1NC(=O)[C@@H]1N[C@@H](CC(C)(C)C)[C@@]2(CNc3cc(Cl)ccc32)[C@H]1c1cccc(Cl)c1F [Example 17, (2′S,3S,4′S,5′R)-6-chloro-4′-(3-chloro-2-fluorophenyl)-N-(4-((5-(2-((R)-2,6-dioxopiperidin-3-yl)-1-oxoisoindolin-4-yl)pent-4-yn-1-yl)carbamoyl)-2-methoxyphenyl)-2′-neopentylspiro[indoline-3,3′-pyrrolidine]-5′-carboxamide] | 3.82 nM | 1.36 nM |
| COc1cc(C(=O)NCCCC#Cc2cccc3c2CN([C@H]2CCC(=O)NC2=O)C3=O)ccc1NC(=O)[C@@H]1N[C@@H](CC(C)(C)C)[C@@]2(CNc3cc(Cl)ccc32)[C@H]1c1cccc(Cl)c1F [Example 18, (2′S,3S,4′S,5′R)-6-chloro-4′-(3-chloro-2-fluorophenyl)-N-(4-((5-(2-((S)-2,6-dioxopiperidin-3-yl)-1-oxoisoindolin-4-yl)pent-4-yn-1-yl)carbamoyl)-2-methoxyphenyl)-2′-neopentylspiro[indoline-3,3′-pyrrolidine]-5′-carboxamide] | 5.91 nM | 1.3 nM |
| COc1cc(C(=O)N2CCC(C#Cc3cccc4c3CN(C3CCC(=O)NC3=O)C4=O)CC2)ccc1NC(=O)[C@@H]1N[C@@H](CC(C)(C)C)[C@@]2(CNc3cc(Cl)ccc32)[C@H]1c1cccc(Cl)c1F (stereo partly drawn) [Example 20, (2′S,3S,4′S,5′R)-6-chloro-4′-(3-chloro-2-fluorophenyl)-2′-(2,2-dimethylpropyl)-N-[4-(4-{2-[2-(2,6-dioxopiperidin-3-yl)-1-oxo-3H-isoindol-4-yl]ethynyl}piperidine-1-carbonyl)-2-methoxyphenyl]-1,2-dihydrospiro[indole-3,3′-pyrrolidine]-5′-carboxamide] | 31.9 nM | 3.67 nM |
| COc1cc(C(=O)NC23CC(C#Cc4cccc5c4CN(C4CCC(=O)NC4=O)C5=O)(C2)C3)ccc1NC(=O)[C@@H]1N[C@@H](CC(C)(C)C)[C@@]2(CNc3cc(Cl)ccc32)[C@H]1c1cccc(Cl)c1F (stereo partly drawn) [Example 21, (2′S,3S,4′S,5′R)-6-chloro-4′-(3-chloro-2-fluorophenyl)-2′-(2,2-dimethylpropyl)-N-{4-[(3-{2-[2-(2,6-dioxopiperidin-3-yl)-1-oxo-3H-isoindol-4-yl]ethynyl}bicyclo[1.1.1]pentan-1-yl)carbamoyl]-2-methoxyphenyl}-1,2-dihydrospiro[indole-3,3′-pyrrolidine]-5′-carboxamide] | 448 nM | 3.45 nM |
| COc1cc(N2CCC3(CC2)CC([C@@H]2C[C@H]2C#Cc2cccc4c2CN(C2CCC(=O)NC2=O)C4=O)C3)ccc1NC(=O)[C@@H]1N[C@@H](CC(C)(C)C)[C@@]2(CNc3cc(Cl)ccc32)[C@H]1c1cccc(Cl)c1F (stereo partly drawn) [Example 22, (2′S,3S,4′S,5′R)-6-chloro-4′-(3-chloro-2-fluorophenyl)-N-(4-(2-((1S,2R)-2-((2-(2,6-dioxopiperidin-3-yl)-1-oxoisoindolin-4-yl)ethynyl)cyclopropyl)-7-azaspiro[3.5]nonan-7-yl)-2-methoxyphenyl)-2′-neopentylspiro[indoline-3,3′-pyrrolidine]-5′-carboxamide] | > 1000 nM | 272 nM |
| COc1cc(N2CCC3(CC2)CC([C@H]2C[C@@H]2C#Cc2cccc4c2CN(C2CCC(=O)NC2=O)C4=O)C3)ccc1NC(=O)[C@@H]1N[C@@H](CC(C)(C)C)[C@@]2(CNc3cc(Cl)ccc32)[C@H]1c1cccc(Cl)c1F (stereo partly drawn) [Example 23, (2′S,3S,4′S,5′R)-6-chloro-4′-(3-chloro-2-fluorophenyl)-N-(4-(2-((1R,2S)-2-((2-(2,6-dioxopiperidin-3-yl)-1-oxoisoindolin-4-yl)ethynyl)cyclopropyl)-7-azaspiro[3.5]nonan-7-yl)-2-methoxyphenyl)-2′-neopentylspiro[indoline-3,3′-pyrrolidine]-5′-carboxamide] | > 1000 nM | 169 nM |
| COc1cc(C(=O)N2CCC[C@H](CC#Cc3cccc4c3CN(C3CCC(=O)NC3=O)C4=O)C2)ccc1NC(=O)[C@@H]1N[C@@H](CC(C)(C)C)[C@@]2(CNc3cc(Cl)ccc32)[C@H]1c1cccc(Cl)c1F (stereo partly drawn) [Example 24, (2′S,3S,4′S,5′R)-6-chloro-4′-(3-chloro-2-fluorophenyl)-N-(4-((3R)-3-(3-(2-(2,6-dioxopiperidin-3-yl)-1-oxoisoindolin-4-yl)prop-2-yn-1-yl)piperidine-1-carbonyl)-2-methoxyphenyl)-2′-neopentylspiro[indoline-3,3′-pyrrolidine]-5′-carboxamide] | 21.1 nM | 2.97 nM |
| COc1cc(N2CCC[C@H](C#Cc3cccc4c3CN([C@@H]3CCC(=O)NC3=O)C4=O)C2)ccc1NC(=O)[C@@H]1N[C@@H](CC(C)(C)C)[C@@]2(CNc3cc(Cl)ccc32)[C@H]1c1cccc(Cl)c1F [Example 29, (2′S,3S,4′S,5′R)-6-chloro-4′-(3-chloro-2-fluorophenyl)-N-(4-((R)-3-((2-((R)-2,6-dioxopiperidin-3-yl)-1-oxoisoindolin-4-yl)ethynyl)piperidin-1-yl)-2-methoxyphenyl)-2′-neopentylspiro[indoline-3,3′-pyrrolidine]-5′-carboxamide] | – | 12 nM |
| COc1cc(N2CCC[C@@H](C#Cc3cccc4c3CN([C@H]3CCC(=O)NC3=O)C4=O)C2)ccc1NC(=O)[C@@H]1N[C@@H](CC(C)(C)C)[C@@]2(CNc3cc(Cl)ccc32)[C@H]1c1cccc(Cl)c1F [Example 30, (2′S,3S,4′S,5′R)-6-chloro-4′-(3-chloro-2-fluorophenyl)-N-(4-((S)-3-((2-((S)-2,6-dioxopiperidin-3-yl)-1-oxoisoindolin-4-yl)ethynyl)piperidin-1-yl)-2-methoxyphenyl)-2′-neopentylspiro[indoline-3,3′-pyrrolidine]-5′-carboxamide] | – | 13.2 nM |
| COc1cc(N2CCC[C@@H](C#Cc3cccc4c3CN([C@@H]3CCC(=O)NC3=O)C4=O)C2)ccc1NC(=O)[C@@H]1N[C@@H](CC(C)(C)C)[C@@]2(CNc3cc(Cl)ccc32)[C@H]1c1cccc(Cl)c1F [Example 31, (2′S,3S,4′S,5′R)-6-chloro-4′-(3-chloro-2-fluorophenyl)-N-(4-((S)-3-((2-((R)-2,6-dioxopiperidin-3-yl)-1-oxoisoindolin-4-yl)ethynyl)piperidin-1-yl)-2-methoxyphenyl)-2′-neopentylspiro[indoline-3,3′-pyrrolidine]-5′-carboxamide] | – | 6.1 nM |
